This is an account of results in ChEMBL document CHEMBL1201862, “PubChem BioAssay data set” (2004).

Assay [1] can be described thus: fluconazole-exposed Candida albicans growth modulators – fluorescence, retest, confirmation (AID 2467). Format: functional, cell-based.
The test system of assay [2] is INS1. Briefly: INS-1E survival protection against cytokine death – cell-based, luminescence, retest, dose response (AID 449756).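 Note: cell death triggered by IL-1 beta plus TNF-alpha plus IFN-gamma mixture; protective hits raise ATP signal compared with cytokine alone wells.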 In kind it is functional. To be noted: Rattus norvegicus.
Assay [3] in a line: luciferase reporter signal suppression in cells – H4 neuroglioma cells, luminescence, dose response (AID 1990). In kind it is functional, cell-based.
Assay [4] deals with BJ. The assay can be described thus: BJ-TERT-LT-ST fibroblast viability loss – cell-based, RAS-independent, luminescence, dose response (AID 1935).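 Note: BJ fibroblasts immortalized with TERT plus LT and ST oncogenes.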 Format: functional. To be noted: Homo sapiens.
Assay [5] in a line: Luminescence Cell-Based Dose Response HTS to Identify Inhibitors of 5'UTR Stem-Loop Driven Prion Protein mRNA Translation in H4 Neuroglioblastoma Cells. [Related pubchem assays: 1827 (Project Summary), 1813 (Primary HTS)]. In kind it is functional.
Assay [6] is described as follows: alpha-synuclein stem-loop luciferase translation blockers – H4 neuroglioma cells, luminescence, confirmation (AID 1988). Format: functional, cell-based.
The subject of assay [7] is BJ. The assay can be described thus: cells. In kind it is functional, cell-based. To be noted: Homo sapiens.
Assay [8] can be described thus: DRD fibroblast viability loss – cell-based, non-viral oncogenic, luminescence, dose response (AID 1934). In kind it is functional. Conditions: Homo sapiens.
For assay [9], the system named is BJ. Briefly: BJ-TERT fibroblast viability loss – cell-based, RAS-independent, luminescence, dose response (AID 1933). In kind it is functional. Conditions: Homo sapiens.
A short description of assay [10]: NIH-3T3 fibroblast cytotoxicity, dose response, cytotoxicity control, cell-based, fluorescence, Alamar Blue, secondary assay (AID 2327).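 Note: NIH-3T3 mouse fibroblasts cultured with fluconazole at 8 µg/mL.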 In kind it is functional.
In assay [11] the target is Estrogen receptor beta (Homo sapiens, UniProt Q92731).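 Note: recombinant ER-beta bound to coactivator SRC1 peptide in presence of estradiol agonist; inhibitors block coactivator peptide binding and lower the FRET signal.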
The nature of assay [12]: blockers of bursicon-stimulated LGR2 cAMP reporter – cell-based, HEK293, CRE-luciferase reporter, cherry pick, set 2, dose response (AID 743343).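 Note: transfected cells were stimulated with diluted bursicon conditioned medium after compound addition.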 Format: functional. (In a reporter assay the amount or activity of a reporter protein is the signal.)
Assay [13] can be described thus: blockade of melanocortin 4 receptor signaling – cell-based, plate reader, cherry pick, counter-screen for LGR2 antagonist project, dose response (AID 743444).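 Note: transfected HEK 293 cells stimulated with alpha-MSH peptide; potency of inhibitors of the alpha-MSH evoked signal.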 Format: functional. Background: Counterscreens check selectivity or assay interference.
For assay [14], the system named is HEK293. The assay can be described thus: EBV LMP1 TES2 canonical NF-kB signalling blockers – cell-based, HEK293, luciferase, cherry-pick, dose response (AID 588343). Conditions: Homo sapiens. In kind it is functional.
In assay [15] the target is T1, Polyadenylate-binding protein 1 (Homo sapiens, UniProt P11940). Briefly: MLLE binding blockers, Cy5 peptide tracer – biochemical, fluorescence polarization, Cy5-PAM2 peptide, secondary, miRNA deadenylation inhibitor project, dose response (AID 602260). Format: functional. Conditions: read-out: IC50_Mean.
Assay [16] addresses T1, Polyadenylate-binding protein 1. Briefly: MLLE domain peptide-binding blockers, IC50 – biochemical, fluorescence polarization, FITC-PAM2 peptide, dose response (AID 602259). In kind it is functional. To be noted: read-out: IC50_Mean.
For assay [17], the target named is T2, DNA repair protein RAD52 homolog (Homo sapiens, UniProt P43351).
T2 sequence (P43351 whole entry): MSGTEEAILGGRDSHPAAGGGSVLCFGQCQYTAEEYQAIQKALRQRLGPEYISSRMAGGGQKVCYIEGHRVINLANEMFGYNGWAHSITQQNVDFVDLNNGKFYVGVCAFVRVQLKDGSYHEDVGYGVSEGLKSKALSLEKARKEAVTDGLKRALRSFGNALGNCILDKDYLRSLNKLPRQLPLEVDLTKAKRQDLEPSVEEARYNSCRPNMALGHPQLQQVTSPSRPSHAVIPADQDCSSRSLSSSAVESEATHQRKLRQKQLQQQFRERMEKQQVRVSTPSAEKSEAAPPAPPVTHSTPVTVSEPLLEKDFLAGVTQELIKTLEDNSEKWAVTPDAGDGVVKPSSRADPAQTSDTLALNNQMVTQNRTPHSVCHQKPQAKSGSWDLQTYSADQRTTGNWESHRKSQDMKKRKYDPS
Format: functional, biochemical.

The nature of assay [18]: OVCAR8 cell viability loss – plate reader, dry powder samples, PAX8 project, dose response (AID 743197). Format: functional, cell-based. Conditions: OVCAR-8.
A short description of assay [19]: blockers of HIV-1 envelope-mediated cell-cell fusion – cherry-pick, dose response (AID 652057). Format: functional, cell-based.
Assay [20] can be described thus: HIV-1 AD8 envelope cell-cell fusion blockers – cherry-pick, dose response (AID 652062).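 Note: luciferase signal from cell-cell fusion driven by HIV-1 clade B AD8 Env; potency is for inhibitors of fusion seen as a drop in luminescence.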 In kind it is functional, cell-based.
The nature of assay [21]: blockers of HIV-1 ZM109 envelope-driven cell-cell fusion – HeLa effector, CEM target cells, luciferase, cherry-pick, dose response (AID 652058).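 Note: luciferase signal from HIV-1 Env mediated cell-cell fusion of effector and target cells.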 Format: functional, cell-based.
The target of assay [22] is Paired box protein Pax-8 (Homo sapiens, UniProt Q06710). The assay can be described thus: PAX8 transcriptional activity inhibition in RMG-I – RMG-I cells, luciferase, cherry-pick, dose response (AID 687027).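 Note: luciferase reporter driven by Pax8 target thyroperoxidase promoter measured by SteadyGlo luminescence.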 In kind it is functional, cell-based.

The structures appear in SMILES notation. The source made the active and inactive calls. Bounds are passed on as bounds.

Estrogen receptor beta, sequence (Q92731 whole entry): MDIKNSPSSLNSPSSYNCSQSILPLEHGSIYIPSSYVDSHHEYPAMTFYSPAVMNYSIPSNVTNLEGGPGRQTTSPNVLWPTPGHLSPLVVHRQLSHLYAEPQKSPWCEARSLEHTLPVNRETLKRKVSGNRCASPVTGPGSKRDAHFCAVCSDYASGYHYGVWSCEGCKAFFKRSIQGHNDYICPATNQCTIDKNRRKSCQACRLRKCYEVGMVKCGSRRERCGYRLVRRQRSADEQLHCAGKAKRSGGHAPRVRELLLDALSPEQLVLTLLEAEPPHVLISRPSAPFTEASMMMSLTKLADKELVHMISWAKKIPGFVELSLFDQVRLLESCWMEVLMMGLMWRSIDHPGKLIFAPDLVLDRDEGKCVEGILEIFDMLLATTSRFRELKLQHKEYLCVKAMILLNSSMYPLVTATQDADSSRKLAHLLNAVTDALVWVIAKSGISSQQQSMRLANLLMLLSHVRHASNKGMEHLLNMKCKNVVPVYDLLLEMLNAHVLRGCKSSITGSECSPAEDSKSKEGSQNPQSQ
T1 sequence (P11940 whole entry, the tested form may be a part): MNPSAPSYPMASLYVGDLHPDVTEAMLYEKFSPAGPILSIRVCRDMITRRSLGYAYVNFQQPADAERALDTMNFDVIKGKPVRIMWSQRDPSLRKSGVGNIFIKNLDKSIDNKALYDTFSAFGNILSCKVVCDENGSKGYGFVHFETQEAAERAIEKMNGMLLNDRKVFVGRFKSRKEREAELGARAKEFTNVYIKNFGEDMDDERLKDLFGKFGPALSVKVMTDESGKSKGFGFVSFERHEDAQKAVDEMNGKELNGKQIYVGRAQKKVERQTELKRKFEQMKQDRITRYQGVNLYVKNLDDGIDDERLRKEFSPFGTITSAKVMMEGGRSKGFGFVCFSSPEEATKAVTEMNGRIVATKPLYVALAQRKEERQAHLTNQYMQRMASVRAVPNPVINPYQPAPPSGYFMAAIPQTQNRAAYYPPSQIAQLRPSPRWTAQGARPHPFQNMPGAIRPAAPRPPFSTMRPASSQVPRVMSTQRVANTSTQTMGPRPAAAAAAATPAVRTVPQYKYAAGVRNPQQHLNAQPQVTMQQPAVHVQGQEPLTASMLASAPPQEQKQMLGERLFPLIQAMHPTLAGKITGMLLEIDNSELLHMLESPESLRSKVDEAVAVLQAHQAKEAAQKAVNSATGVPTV
Paired box protein Pax-8, sequence (Q06710 whole entry): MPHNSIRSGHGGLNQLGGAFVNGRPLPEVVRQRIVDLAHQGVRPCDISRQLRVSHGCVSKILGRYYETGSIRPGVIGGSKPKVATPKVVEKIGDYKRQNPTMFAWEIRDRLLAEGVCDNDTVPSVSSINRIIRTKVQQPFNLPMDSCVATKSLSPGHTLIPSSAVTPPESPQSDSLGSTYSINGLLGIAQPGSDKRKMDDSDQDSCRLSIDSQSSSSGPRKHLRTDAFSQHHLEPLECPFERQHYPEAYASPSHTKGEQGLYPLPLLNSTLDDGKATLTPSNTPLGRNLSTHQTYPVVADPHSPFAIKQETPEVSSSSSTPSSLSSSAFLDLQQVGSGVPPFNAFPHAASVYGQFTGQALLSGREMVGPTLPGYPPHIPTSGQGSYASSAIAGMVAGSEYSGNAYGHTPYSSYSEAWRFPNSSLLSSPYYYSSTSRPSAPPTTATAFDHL

Broadly, the EC50 is the concentration at which the effect is half-maximal. Usually AC50 stands for the midpoint of the concentration-response curve, whichever way the signal moves. As for `COc1ccc(-[n+]2c(-c3ccccc3)cc(-c3ccccc3)cc2-c2ccccc2)cc1.[O-][Cl+3]([O-])([O-])[O-]`, the EC50 in assay [1] is 46 nM (active); in [3], 11 µM (active); in assay [4], > 150 µM (inconclusive); in assay [5], > 120 µM (not active); in assay [6], 17.9 µM (active); in assay [7] it was 14.1 µM (active). The EC50 was 14.1 µM (active) in assay [8], 11.7 µM (inconclusive) in assay [9] and 40.7 µM (active) in [10]. For the same molecule, in assay [2], the AC50 is 1.33 µM (active).
Consider `COc1ccc(Cn2nnnc2C(c2ccccc2OC)N2CCC(C(N)=O)CC2)cc1` (stereo not given), for which the IC50 in assay [11] is given as > 50 µM (not active).
In the case of `N#C/C(=C\c1c(N2CCC(C(N)=O)CC2)nc2ccccn2c1=O)S(=O)(=O)c1ccccc1`, in [11], the IC50 is listed as > 50 µM (not active).
With `O=C(CN1C(=O)c2ccccc2S1(=O)=O)c1ccc(F)c(F)c1`, the AC50 was 9.41 µM (active) in assay [12], 3.42 µM (active) in assay [13] and 6.76 µM (active) in assay [14].
With `COc1ccc(C(N)=S)c(OC)c1`, the IC50 in assay [15] and in [16] was > 66 µM (inactive) each time. For the same molecule, the AC50 in assay [17] was 9.26 µM (active).
Turning to `O=C(C[C@H]1C[C@@H]2c3cc(NS(=O)(=O)c4ccc(F)cc4)ccc3O[C@@H]2[C@@H](CO)O1)NCc1ccc(-c2ccccc2)cc1`, the half-maximal activity concentration (AC50) in assay [18] is 4 µM (active); in [19], 23.1 µM (active); in assay [20], 19.4 µM (active); in [21] it was 9.89 µM (active); in assay [22], 7.31 µM (active).
Regarding `O=C(O)c1ccc(N/N=C/c2ccc3ncccc3c2)cc1`, the AC50 in assay [12] is 3.18 µM (active); in assay [13] it was 3.72 µM (active); in [14], 2.54 µM (active).
For the molecule `COc1c(/C=N/Nc2ccc([N+](=O)[O-])cc2[N+](=O)[O-])c(C)nn1-c1ccccc1`, the EC50 in [4] is > 150 µM (inconclusive); in assay [7], > 150 µM (not active); in assay [8], 15.8 µM (active); in [9], 7.99 µM (active).
